From patent publication US9605064B2, “Methods and compositions for treatment of skin disorders” (AbbVie Biotechnology Ltd, priority 2006, dated 2017)
Marks after values point to notes of the source that are not given here.

Assays:
Assay type in all cases: in vivo, human
[1] = test system: patients with moderate to severe plaque psoriasis; test: EuroQOL 5D (EQ-5D), Phase II trial; conditions: Week 12
Protocol: This study provided the opportunity to evaluate the validity and responsiveness to change in clinical status of PROs instruments. Patients completed the DLQI, SF-36, and EQ-5D questionnaires at baseline and at 12 weeks. Blinded investigators assessed the Psoriasis Area and Severity Index (PASI) scores and the Physician's Global Assessment (PGA) scores of enrolled patients. The responsiveness of the measures to changes in the clinical endpoints from baseline to Week 12 was assessed. Estimates of minimum important differences (MID) were derived. All analyses were performed with blinded data; findings and conclusions were not biased based on treatment condition.
Three PROs measures were used in the study and are the subject of the analyses reported here. All PROs measures were assessed at baseline and at Week 12 (or early termination, if applicable).
The EQ-5D [17,18] is a six-item, preference-based instrument designed to measure general health status. The EQ-5D has two sections: The first consists of five items to assess degree of physical functioning (mobility, self-care, usual activities, pain/discomfort, and anxiety/depression). […]
The relationship between mean change in EQ-5D and clinical responses was evaluated from baseline to Week 12. […]

[2] = test system: patients with moderate to severe chronic plaque psoriasis; test: Physician's Global Assessment (PGA), Phase II trial with 48-week extension; conditions: for Percentage of Patients Achieving PGA “Clear” or “Almost Clear”: modified ITT, NRI; for PGA “Clear”/“Almost Clear”: after 60 weeks of 40 mg eow
Source text: Efficacy outcome measures included PASI and PGA.
The Physician's Global Assessment (PGA), which was used as a clinical endpoint in the trial, was used to determine the MCID for DLQI. The PGA is a seven point scale used to measure disease severity from a physician's evaluation. Scoring under the PGA ranges from 1 (Clear) to 7 (Severe). Categories for the 7-point scale include the following: • Severe: very marked plaque elevation, scaling and/or erythema; • Moderate to severe: marked plaque elevation, scaling and/or erythema; • Moderate: moderate plaque elevation, scaling and/or erythema; • Mild to moderate: intermediate between moderate and mild; • Mild: slight plaque elevation, scaling and/or erythema; • Almost clear: intermediate between mild and clear; and • Clear: no signs of psoriasis (post-inflammatory hypopigmentation or hyperpigmentation could be present). Scoring regions were from 1 (clear) to 7 (severe). PGA was assessed at screening; baseline; week 1; week 2; week 4; week 8; and week 12/early termination; and follow up. The same investigator performed the assessment for each patient throughout the study. Statistical methods were performed according to the following summary. Analyses were performed on blinded data, combining results from all three groups. Changes in the PGA from baseline to week 12 were correlated with changes in DLQI total score.
The PGA is a seven-point scale used to measure the severity of disease at the time of the physician's evaluation. The seven disease categories are: • Severe: very marked plaque elevation, scaling, and/or erythema • Moderate to Severe: marked plaque elevation, scaling, and/or erythema • Moderate: moderate plaque elevation, scaling, and/or erythema • Mild to moderate: intermediate between moderate and mild • Mild: slight plaque elevation, scaling, and/or erythema • Almost Clear: intermediate between mild and clear • Clear: no signs of psoriasis (post-inflammatory hypopigmentation or hyperpigmentation could be present).
The PGA scale is scored from 1 (Clear) to 7 (Severe). The PGA was assessed by the investigator at screening, baseline, and Weeks 1, 2, 4, 8, 12/Early Termination, and the follow-up visit. Each study site was to make every attempt to have the same investigator perform these assessments throughout the study for each patient.
The PGA is a 7-point scale used to measure disease severity from a physician's evaluation. The categories for the 7-point scale include: Severe: very marked plaque elevation, scaling, and/or erythema; Moderate to severe: marked plaque elevation, scaling, and/or erythema; Moderate: moderate plaque elevation, scaling, and/or erythema; Mild to moderate: intermediate between moderate and mild; Mild: slight plaque elevation, scaling, and/or erythema; Almost clear: intermediate between mild and clear; and Clear: no signs of psoriasis (post-inflammatory hypopigmentation or hyperpigmentation could be present). The scoring ranges are from 1 (Clear) to 7 (Severe). PGA was assessed at screening, baseline, Week 1, Week 2, Week 4, Week 8, Week 12/early termination, and follow-up. The same investigator performed this assessment for each patient throughout the study.

C-reactive protein (CRP) = test: C-reactive protein concentrations, post-hoc analysis of REVEAL; conditions: for mean change from baseline in CRP: 16 wks
Protocol: Changes in CRP concentrations were also evaluated in subgroups with or without self-reported psoriatic arthritis (PsA) and with or without obesity (by body mass index [BMI]).

Adalimumab: a human anti-TNF mAb, described in U.S. Pat. No. 6,090,382 as D2E7 (HUMIRA, Abbott Laboratories)
Mean Change in EQ-5D VAS, Change from Baseline ([1]; 40 mg eow): 18 | Mean Change in EQ-5D VAS, Change from Baseline ([1]; 40 mg weekly): 10.9 | Percentages of Patients with PGA “Clear” or “Almost Clear” ([2]; Week 12, 40 mg eow (Table 78)): 51% | Percentages of Patients with PGA “Clear” or “Almost Clear” ([2]; Week 12, 40 mg weekly (Table 78)): 81% | Percentage of Patients Achieving PGA “Clear” or “Almost Clear” ([2]; Week 12, adalimumab 40 mg eow): 49* % | Percentage of Patients Achieving PGA “Clear” or “Almost Clear” ([2]; Week 12, adalimumab 40 mg weekly): 76* % | Percentage of Patients Achieving PGA “Clear” or “Almost Clear” ([2]; Week 24, adalimumab 40 mg eow): 64% | Percentage of Patients Achieving PGA “Clear” or “Almost Clear” ([2]; Week 24, adalimumab 40 mg weekly): 72% | Percentage of Patients Achieving PGA “Clear” or “Almost Clear” ([2]; Week 24, placebo/adalimumab 40 mg eow (adalimumab from Week 12)): 45% | Percentage of Patients Achieving PGA “Clear” or “Almost Clear” ([2]; Week 36, adalimumab 40 mg eow): 60% | Percentage of Patients Achieving PGA “Clear” or “Almost Clear” ([2]; Week 36, adalimumab 40 mg weekly): 68% | Percentage of Patients Achieving PGA “Clear” or “Almost Clear” ([2]; Week 36, placebo/adalimumab 40 mg eow (adalimumab from Week 12)): 51% | Percentage of Patients Achieving PGA “Clear” or “Almost Clear” ([2]; Week 60, adalimumab 40 mg eow): 44% | Percentage of Patients Achieving PGA “Clear” or “Almost Clear” ([2]; Week 60, adalimumab 40 mg weekly): 52% | Percentage of Patients Achieving PGA “Clear” or “Almost Clear” ([2]; Week 60, placebo/adalimumab 40 mg eow (adalimumab from Week 12)): 45% | PGA “Clear” or “Almost Clear” ([2]; baseline PASI ≧10 and DLQI >10, 40 mg eow, Week 12): 62 % of Patients | PGA “Clear” or “Almost Clear” ([2]; baseline PASI ≧10 and DLQI >10, 40 mg eow, Week 24): 69 % of Patients | PGA “Clear” or “Almost Clear” ([2]; baseline PASI ≧10 and DLQI >10, 40 mg eow, Week 36): 65 % of Patients | PGA “Clear” or “Almost Clear” ([2]; baseline PASI ≧10 and DLQI >10, 40 mg eow, Week 60): 54 % of Patients | PGA “Clear” or “Almost Clear” ([2]; baseline PASI ≧10 and DLQI >10, 40 mg weekly, Week 12): 70 % of Patients | PGA “Clear” or “Almost Clear” ([2]; baseline PASI ≧10 and DLQI >10, 40 mg weekly, Week 24): 74 % of Patients | PGA “Clear” or “Almost Clear” ([2]; baseline PASI ≧10 and DLQI >10, 40 mg weekly, Week 36): 65 % of Patients | PGA “Clear” or “Almost Clear” ([2]; baseline PASI ≧10 and DLQI >10, 40 mg weekly, Week 60): 52 % of Patients | PGA “Clear” or “Almost Clear” ([2]; baseline PASI ≧10 and DLQI >10, placebo/adalimumab 40 mg eow, Week 24): 33 % of Patients | PGA “Clear” or “Almost Clear” ([2]; baseline PASI ≧10 and DLQI >10, placebo/adalimumab 40 mg eow, Week 36): 44 % of Patients | PGA “Clear” or “Almost Clear” ([2]; baseline PASI ≧10 and DLQI >10, placebo/adalimumab 40 mg eow, Week 60): 39 % of Patients | PGA “Clear” or “Almost Clear” ([2]; dosage escalation group (eow to 40 mg weekly, n = 30), Week 60): 20% | PGA “Clear”/“Almost Clear” ([2]; no prior use): 44% | PGA “Clear”/“Almost Clear” ([2]; prior biologic use): 38% | PGA “Clear”/“Almost Clear” ([2]; prior systemic use): 47% | mean change from baseline in CRP (C-reactive protein (CRP); Ps group (without self-reported PsA)): −1.3 | patients with elevated CRP at baseline who had a normal CRP (C-reactive protein (CRP); Ps group, Wk 16): 64.6% | mean change from baseline in CRP (C-reactive protein (CRP); PsA group): −6.3 | patients with elevated CRP at baseline who had a normal CRP (C-reactive protein (CRP); PsA group, Week 16): 71.9% | patients changed from elevated CRP at baseline to a normal CRP (C-reactive protein (CRP); obese patients, Week 16): 64.1%
